Values quoted from earlier work, collected in US5733881A, “Opioid peptide antagonists” (Astra AB, priority 1994, dated 1998).

System: μ opioid receptors
Conditions: GPI assay

Oc1ccc2c3c1O[C@H]1c4[nH]c5ccccc5c4C[C@@]4(O)[C@@H](C2)N(CC2CC2)CC[C@]314 [naltrindole]
μ antagonist Ke: 29 nM
